According to publication PMC11396129, “Oxindole–benzothiazole hybrids as CDK2 inhibitors and anticancer agents: design, synthesis and biological evaluation” (BMC Chemistry, 2024):

What was measured:
Assay type in all cases: cell-based, human
SW-620 = assay: NCI 60 panel growth inhibition (SRB), colon cancer; settings: SW-620, 10 μM
Method: (§1) Screening of cytotoxic activity against a panel of sixty human tumor cell lines The selected compounds by NCI were evaluated for their anticancer activity in a two- stage process. […] Then, the output from the single dose screen is reported as a mean graph. […] Assay protocol. […] For a typical screening experiment, cells are inoculated into 96 well microtiter plates in 100 µL at plating densities ranging from 5000 to 40,000 cells/well depending on the doubling time of individual cell lines. […] After 24 h, two plates of each cell line are fixed in situ with TCA, to represent a measurement of the cell population for each cell line at the time of drug addition (Tz). The experimental drugs are solubilized in dimethyl sulfoxide at 400-fold the desired final maximum test concentration and stored frozen prior to use. At the time of drug addition, an aliquot of frozen concentrate is thawed and diluted to twice the desired final maximum test concentration with complete medium containing 50 µg/mL gentamicin. Additional four, 10-fold or ½ log serial dilutions are made to provide a total of five drug concentrations plus control. […] For adherent cells, the assay is terminated by the addition of cold TCA. […] The supernatant is discarded, and the plates are washed five times with tap water and air dried. […] Using the seven absorbance measurements [time zero, (Tz), control growth, (C), and test growth in the presence of drug at the five concentration levels (Ti)], the percentage growth is calculated at each of the drug concentrations levels. Percentage growth inhibition is calculated as: [(Ti Tz)/(C–Tz)] x 100 for concentrations for which Ti>/=Tz and [(Ti-Tz)/Tz] x 100 for concentrations for which Ti < Tz. Three dose response parameters are calculated for each experimental agent. […] The drug concentration resulting in total growth inhibition (TGI) is calculated from Ti = Tz. […] Values are calculated for each of these three parameters if the level of activity is reached; however, if the effect is not reached or is exceeded, the value for that parameter is expressed as greater or less than the maximum or minimum concentration tested.

KM12 = assay: NCI 60 panel growth inhibition (SRB), colon cancer; settings: KM12, 10 μM
Method: as §1

HCT-15 = assay: NCI 60 panel growth inhibition (SRB), colon cancer; settings: HCT-15, 10 μM
Method: as §1

HCC-2998 = assay: NCI 60 panel growth inhibition (SRB), colon cancer; settings: HCC-2998, 10 μM
Method: as §1

HCT-116 = assay: NCI 60 panel growth inhibition (SRB), colon cancer; settings: HCT-116, 10 μM
Method: as §1

[1] = test system: NCI 60 cancer cell line panel; assay: NCI 60 panel growth inhibition (SRB), whole panel; settings: mean over NCI 60 panel, 10 μM
Method: as §1

MDA-MB-231/ATCC = assay: NCI 60 panel growth inhibition (SRB), breast cancer; settings: 10 μM
Method: as §1

BT-549 = assay: as above; settings: BT-549, 10 μM
Method: as §1

MCF7 = assay: as above; settings: MCF7, 10 μM
Method: as §1

HS 578T = assay: as above; settings: 10 μM
Method: as §1

MDA-MB-468 = assay: as above; settings: MDA-MB-468, 10 μM
Method: as §1

MALME-3M = assay: NCI 60 panel growth inhibition (SRB), melanoma; settings: 10 μM
Method: as §1

SK-MEL-5 = assay: NCI 60 panel growth inhibition (SRB), melanoma; settings: SK-MEL-5, 10 μM
Method: as §1

UACC-257 = assay: NCI 60 panel growth inhibition (SRB), melanoma; settings: UACC-257, 10 μM
Method: as §1

M14 = assay: NCI 60 panel growth inhibition (SRB), melanoma; settings: M14, 10 μM
Method: as §1

UACC-62 = assay: NCI 60 panel growth inhibition (SRB), melanoma; settings: UACC-62, 10 μM
Method: as §1

MDA-MB-435 = assay: NCI 60 panel growth inhibition (SRB), melanoma; settings: MDA-MB-435, 10 μM
Method: as §1

LOX IMVI = assay: NCI 60 panel growth inhibition (SRB), melanoma; settings: 10 μM
Method: as §1

SK-MEL-28 = assay: NCI 60 panel growth inhibition (SRB), melanoma; settings: SK-MEL-28, 10 μM
Method: as §1

SF-268 = assay: NCI 60 panel growth inhibition (SRB), CNS cancer; settings: SF-268, 10 μM
Method: as §1

SF-539 = assay: NCI 60 panel growth inhibition (SRB), CNS cancer; settings: SF-539, 10 μM
Method: as §1

SNB-19 = assay: NCI 60 panel growth inhibition (SRB), CNS cancer; settings: SNB-19, 10 μM
Method: as §1

SF-295 = assay: NCI 60 panel growth inhibition (SRB), CNS cancer; settings: SF-295, 10 μM
Method: as §1

SNB-75 = assay: NCI 60 panel growth inhibition (SRB), CNS cancer; settings: SNB-75, 10 μM
Method: as §1

SN12C = assay: NCI 60 panel growth inhibition (SRB), renal cancer; settings: 10 μM
Method: as §1

786-0 = assay: NCI 60 panel growth inhibition (SRB), renal cancer; settings: 786-0, 10 μM
Method: as §1

A498 = assay: NCI 60 panel growth inhibition (SRB), renal cancer; settings: A498, 10 μM
Method: as §1

RXF 393 = assay: NCI 60 panel growth inhibition (SRB), renal cancer; settings: RXF 393, 10 μM
Method: as §1

ACHN = assay: NCI 60 panel growth inhibition (SRB), renal cancer; settings: 10 μM
Method: as §1

TK-10 = assay: NCI 60 panel growth inhibition (SRB), renal cancer; settings: TK-10, 10 μM
Method: as §1

CAKI-1 = assay: NCI 60 panel growth inhibition (SRB), renal cancer; settings: CAKI-1, 10 μM
Method: as §1

UO-31 = assay: NCI 60 panel growth inhibition (SRB), renal cancer; settings: UO-31, 10 μM
Method: as §1

| Compound | GI% (SW-620) [%] | GI% (KM12) | GI% (HCT-15) | GI% (HCC-2998) | GI% (HCT-116) [%] | Mean GI% [1] [%] | GI% (MDA-MB-231/ATCC) [%] | GI% (BT-549) | GI% (MCF7) [%] | GI% (HS 578T) | GI% (MDA-MB-468) | GI% (MALME-3M) | GI% (SK-MEL-5) | GI% (UACC-257) | GI% (M14) | GI% (UACC-62) | GI% (MDA-MB-435) | GI% (LOX IMVI) [%] | GI% (SK-MEL-28) | GI% (SF-268) | also measured |
| --- | --- | --- | --- | --- | --- | --- | --- | --- | --- | --- | --- | --- | --- | --- | --- | --- | --- | --- | --- | --- | --- |
| COc1ccc(-c2nc3ccccc3s2)cc1OCC(=O)NN=C1C(=O)Nc2ccc(Cl)cc21 [Compound 9q, 2-(5-(Benzo[d]thiazol-2-yl)-2-methoxyphenoxy)-N′-(5-chloro-2-oxoindolin-3-ylidene)acetohydrazide] | 51.82 | 17.57% | 36.40% | – (GI% < 5%) | 72.84 | 31.16 | 59.98 | 23.63% | 57.82 | 74.27% | – (GI% < 5%) | 26.21% | 12.80% | – (GI% < 5%) | 23.59% | 12.95% | 37.37% | 72.29 | – (GI% < 5%) | 27.89% | GI% (SF-539): 34.10%; GI% (SNB-19): 63.00%; GI% (SF-295): 23.77%; GI% (SNB-75): 15.62%; GI% (SN12C): 36.67%; GI% (786-0): 44.24%; GI% (A498): – (GI% < 5%); GI% (RXF 393): 32.76%; GI% (ACHN): 59.32%; GI% (TK-10): 62.99%; GI% (CAKI-1): 50.03%; GI% (UO-31): 20.65% |
| COc1ccc(-c2nc3ccccc3s2)cc1OCC(=O)NN=C1C(=O)Nc2ccc(Br)cc21 [Compound 9r, 2-(5-(Benzo[d]thiazol-2-yl)-2-methoxyphenoxy)-N′-(5-bromo-2-oxoindolin-3-ylidene)acetohydrazide] | 7.61 | – (GI% < 5%) | – (GI% < 5%) | – (GI% < 5%) | 30.23 | 10.08 | 42.55 | 21.16% | 35.42 | 46.81% | – (GI% < 5%) | 11.71% | – (GI% < 5%) | – (GI% < 5%) | 9.47% | – (GI% < 5%) | – (GI% < 5%) | 38.27 | – (GI% < 5%) | – (GI% < 5%) | GI% (SF-539): 21.62%; GI% (SNB-19): 48.19%; GI% (SF-295): – (GI% < 5%); GI% (SNB-75): – (GI% < 5%); GI% (SN12C): 20.61%; GI% (786-0): 20.37%; GI% (A498): – (GI% < 5%); GI% (RXF 393): 15.08%; GI% (ACHN): 30.78%; GI% (TK-10): 36.32%; GI% (CAKI-1): 29.61%; GI% (UO-31): 15.64% |
| COc1ccc(-c2nc3ccccc3s2)cc1OCC(=O)NN=C1C(=O)Nc2ccccc21 [Compound 9m, 2-(5-(Benzo[d]thiazol-2-yl)-2-methoxyphenoxy)-N′-(2-oxoindolin-3-ylidene) acetohydrazide] | 29.93 | – (GI% < 5%) | 10.77% | – (GI% < 5%) | 41.54 | 6.03 | 9.78 | – (GI% < 5%) | 33.97 | – (GI% < 5%) | 8.24% | – (GI% < 5%) | – (GI% < 5%) | – (GI% < 5%) | – (GI% < 5%) | – (GI% < 5%) | – (GI% < 5%) | 18.28 | – (GI% < 5%) | – (GI% < 5%) | GI% (SF-539): 10.76%; GI% (SNB-19): – (GI% < 5%); GI% (SF-295): – (GI% < 5%); GI% (SNB-75): – (GI% < 5%); GI% (SN12C): 7.15%; GI% (A498): – (GI% < 5%); GI% (RXF 393): – (GI% < 5%); GI% (ACHN): 19.82%; GI% (TK-10): 10.32%; GI% (CAKI-1): 9.28%; GI% (UO-31): – (GI% < 5%) |
